# Entries after “also recorded” stand apart in the source; their conditions may differ.
# Legend:
# [1] = target: T1, LSD1 (Macaca mulatta, UniProt I2CUD2); experiment: PET imaging of the testes (baseline and TAK-418 blocking); details: baseline scan; M3
# Protocol: TAK-418 (3 mg/kg) was administered as an intravenous bolus over 5-min, starting 120 min prior to [^18F]MNI-1054 administration.
# [2] = Arterial plasma radiometabolite analysis (parent fraction) during PET; assay type: in vivo, rhesus monkeys (macaca mulatta); details: for parent fraction in arterial plasma: across baseline and blocking studies
# Protocol: (§1) All brain scans were collected over 3 h on a microPET Focus 220 PET scanner (Siemens), with injected doses in the range 167.61–185 MBq. A transmission scan with an external Germanium-68 source was performed prior to the emission scans to estimate attenuation correction coefficients. Discrete arterial blood samples (n = 18–21) were taken throughout the scans to measure the parent fraction, plasma free fraction as well as total plasma and whole-blood activity for tracer kinetic modeling. Detailed procedures are provided in the Supplement.
# To generate arterial input functions, [^18F]MNI-1054 parent fraction measurements in plasma were first fitted to a sum of decaying exponentials using the Levenberg-Marquardt algorithm. The total arterial plasma activity concentration measurements were then multiplied by the resulting continuous parent fractions to yield the final input functions for kinetic modeling.
# Arterial blood samples (1 mL or 3.5 mL) were drawn at 0.75, 1.5, 2.25, 3, 3.75, 4, 5, 6, 8, 10, 15, 20, 25, 30, 45, 60, 90, 120, 150, and 180 min post-injection to measure parent fraction, total plasma and whole blood activity. The larger samples were drawn for analysis of parent fraction. Aliquots of 200 µL of whole blood were counted in a gamma counter (Wallac 2480 Wizard^2® Automatic Gamma Counter, Perkin-Elmer, Waltham, Massachusetts) for 1 min (400-1400 keV window). All blood samples were centrifuged for 10 min at 3,000 g and the plasma separated. Aliquots of 200 µL of plasma were counted in the gamma counter for 1 min (400-1400 keV window).
# The fraction of unchanged radiotracer in plasma was determined by HPLC at selected time points. […] Sample vials and pellets were counted in the gamma counter for 1 min to calculate the extraction percentage. Gamma chromatograms were analyzed by integration of all radioactive peaks. The percentage of parent compound was calculated by dividing the area under the peak representing parent compound by the sum of the area of all radioactive peaks.
# [3] = target: T1, LSD1; experiment: Brain PET imaging and kinetic analysis of [18F]MNI-1054 (irreversible 2TCM, Patlak); assay type: in vivo; set-up: from tissue; host or cells: brain of living rhesus monkeys (M1, M2), in vivo PET; details: for Average Ki bias (SD) versus full 180-min scan: baseline studies; for Ki Baseline: cerebellum
# Protocol: as §1
# M1 and M2 each completed a scan at baseline to assess brain penetration and kinetics and to serve as reference for the blocking and displacement studies. A self-block study with cold 3 mg/kg MNI-1054, starting 5 min prior to [^18F]MNI-1054 administration, was conducted in M1 to assess regional differences in non-specific binding.
# Blocking studies with the LSD1 inhibitor TAK-418 ([…]) were performed to measure the dose-occupancy relationship for this compound. For blocking studies, TAK-418 was administered intravenously 2 h prior to [^18F]MNI-1054. Prior to conducting these blocking studies, a displacement study with TAK-418 (3 mg/kg) was performed to confirm irreversible tracer binding, in which TAK-418 was administered 1.5 h post [^18F]MNI-1054 administration. For all studies involving TAK-418, the test article was administered intravenously over 5 min. Due to the irreversible binding of these compounds to LSD1, the time taken for the enzyme to re-populate was investigated by imaging one animal (M2) with [^18F]MNI-1054 at 24 and 48 h post TAK-418 treatment (0.3 mg/kg). Each animal also underwent a high-resolution T1-weighted structural brain MRI scan with a 3-D MPRAGE sequence on a separate day for anatomical reference.
# Emission data were reconstructed with filtered back projection into a series of 45 temporal frames (6 × 30, 3 × 60, 2 × 120, 34 × 300 s). For each frame, reconstructed images had dimensions of 256 × 256 × 95, voxel size of 0.949 × 0.949 × 0.796 mm and units of kBq/mL. All standard corrections were applied including normalization, random, scatter, dead-time, and attenuation. Dynamic brain PET images were analyzed using an in-house processing pipeline incorporating functionalities from FSL [18] and AFNI [19] as well as custom developed Matlab scripts (Mathworks Inc., Natick, MA, USA). Key steps of the workflow included rigidly aligning the PET images to the same animal’s brain MRI scan and spatially normalizing the MRI volume to the INIA19 [20] and NMT2.0 [21, 22] rhesus MR templates. Volumes of interest (VOIs) masks defined in rhesus MR template spaces were then inverse warped and applied to the PET images in their native orientation to compute time-activity curves (TACs) for the following regions: occipital lobe, temporal lobe, frontal lobe, parietal lobe, olfactory cortex, amygdala, cingulate, hippocampus, thalamus, hypothalamus, cerebellar grey matter, pons, striatum, nucleus accumbens and cerebral white matter. Lobar VOI masks were restricted to grey matter only. All VOI masks were derived from the INIA19 atlas, with the exception of the pons mask which was obtained from the NMT2.0 atlas (Fig. S.2.). The average activity concentration (kBq/mL) within each VOI was determined and TACs representing the regional brain activity concentration over time were generated. Brain TACs and images were presented in SUV units [g/mL] by normalizing activity concentration data [kBq/mL] by the animal’s weight [kg] and injected activity [MBq].
# Regional TACs were modeled with an irreversible 2-tissue compartmental model (‘2TCM’) (k4 = 0) with the arterial input function to determine the tracer binding parameters Ki [mL/cm^3/min] (where Ki= K1. k3/(k2 + k3)) and λ.k3 (where λ = K1/k2), a parameter independent of blood flow and proportional to LSD1 binding site density via k3. […]
# [4] = irreversible 2TCM, across all scans and regions
compound,measurement,setting,value
Cc1cc([18F])ncc1C(=O)Nc1ccc([C@@H]2C[C@H]2NCC2CC2)cc1 [[^18F]MNI-1054],testes uptake (SUV),[1],~ 2
same,parent fraction in arterial plasma,[2]; 30 min post-injection,~ 42%
same,parent fraction in arterial plasma,[2]; 180 min post-injection,~ 14%
same,"parent fraction and parent-in-plasma activity concentration levels, higher in self-block study",[2]; self-block study (3 mg/kg cold MNI-1054) versus other studies,about 20%
same,displacement of tracer (change in TACs),"[3]; 3.0 mg/kg TAK-418 given 90 min post tracer injection, M1",no observable change in the TACs; also recorded: did not displace
same,Average Ki bias (SD) versus full 180-min scan,[3]; 120-min scan duration,8.3 +/- 6.1%
same,Average Ki bias (SD) versus full 180-min scan,[3]; 150-min scan duration,3.2 +/- 2.8%
same,"difference Ki,Patlak versus Ki,2TCMirrev, mean +/- SD","[3]; Patlak t* = 30 min, all studies and regions",−0.00494 +/- 0.00348 mL/cm^3/min
same,Regional Ki in displacement study compared with baseline,"[3]; TAK-418 3 mg/kg 1.5 h post tracer, same animal",did not substantially vary
same,Ki Baseline,[3]; animal M1,0.058 mL/cm^3/min
same,Ki Baseline,[3]; animal M2,0.047 mL/cm^3/min
same,"k2/k3, max",[3]; [4],194.4
same,"k2/k3, mean (SD)",[3]; [4],24.7 (28.6)
same,"k2/k3, min",[3]; [4],6.1

# From article PMC12796071, “Evaluation of [^18F]MNI-1054, a novel PET ligand for lysine-specific histone demethylase 1A (LSD1), in non-human primates” (EJNMMI Research, 2025)
